Data set [1] deals with HT29 cells. Description: MTS assay. It counts as cell-based. As to conditions: then 48 hours drug-free medium, MTS readout. As to the method: HT29 cells were seeded in 96-well plates at 1,800 cells/well overnight in medium with 10% FBS. The next day, cells were treated with increasing concentrations of compounds for 24 hours at 37° C. After the treatments, the compound-containing medium was removed, cells were washed twice with PBS, and incubated in drug-free medium containing 10% FBS for an additional 48 hours. After addition of MTS and PMS for 4 hours at concentrations of 2 mg/mL and 0.92 mg/mL, respectively, the results were quantitated by spectrophotometry at λ=490 nm and IC50 for each compound was determined.
In general terms: Tetrazolium assays rely on reduction of a dye to a coloured formazan, in cell work by metabolically active cells.

Data set [2] deals with T1, Recombinant unphosphorylated c-Met comprising residues 1038-1346 (Homo sapiens, UniProt P08581).
T1 construct: The DNA fragment encoding the kinase domain (1038-1346) was inserted into Novagen vector pet28a; His6 (N); made in house; host or cells: E. coli BL21(DE3)RIL
The data set can be described thus: c-Met 33P assay. It counts as biochemical. As to conditions: 15 minutes preincubation, 100 μM ATP, IGF-1Rtide substrate, read-out: c-Met, p33 assay. The text has this: cDNA of full-length c-Met purchased from Origen Technologies was used as template for PCR amplification. The DNA fragment encoding the kinase domain (1038-1346) was inserted into Novagen vector pet28a between Nco1 and Sal1 sites. The primers were designed to contain a six-histidine tag to the N-terminus. In order to express dephosphorylated c-Met kinase protein, a tyrosine phosphatase PTP1B (1-283) was sequentially ligated into the made construct between Sal1 and NotI sites. A second ribosome binding site was incorporated in the PTP1B primer after the Sal1 site. The N-terminal His-tagged proteins were expressed in Circlegrow broth (Q-Biogen). The transformed E. coli cell line BL21(DE3)RIL (Stratagene) was cultured to OD=0.8 at 37° C. and induced with 0.3 mM of IPTG for overnight at 12° C. The co-expressed protein was purified by metal-chelation chromatography followed by anion and cation columns. In brief, 4 liters of cells were lysed by sonication in 140 ml buffer containing 20 mM MOPS pH=6.5, 200 mM NaCl, 7.5% glycerol, 0.1% Igepal, supplied with 1 mM PMSF. The supernatant was obtained by centrifugation at 50,000 g for 30 minutes and followed by incubation with 8 mL of Ni-NTA His Bind resin (Novagen) at 4° C. for one hour. A second step 50 mL wash buffer (with 100 mM NaCl and 5 mM imidazole) was applied after initial wash with the lysis buffer. Protein was eluted by 200 mM imidazole pH=8.5, 100 mM NaCl and 7.5% glycerol and directly cleared by passing 10 mL QFF column. The salt concentration and the pH value of the protein flow through were adjusted to 50 mM and 7.5 by dilution, and then loaded to 1 mL SP FF column. The protein was further gel-filtered in an equilibrium buffer of 20 mM TrisHCl pH=8.5, 150 mM NaCl, 7.5% glycerol and 2 mM DTT. The monomeric unphosphorylated c-Met protein was concentrated to 30 mg/mL for storage at −80° C.
Recombinant unphosphorylated c-Met comprising residues 1038-1346 (12.5 ng) was pre-incubated with increasing concentrations of compounds for 15 minutes at room temperature. Following preincubation with compounds, 100 μM of IGF-1Rtide substrate and 100 μM ATP containing 2.5 μCi [^33P-γATP] was added to the mixture. The reaction was carried out for 30 minutes in a Reaction Buffer containing 8 mM MOPS-NaOH pH=7.0, 200 μM EDTA, 5 mM Magnesium acetate, 200 μM dithiothreitol (DTT) and 10 mM Na3VO4. The reaction was then terminated with 10 μL of 3% phosphoric acid. Ten μL were transferred onto a filterplate and were washed 3-times with 1% phosphoric acid; counts were read with a microbeta counter, and IC50 for c-Met inhibition was determined for each compound.

Data set [3] deals with HT29 cells. The data set can be described thus: Annexin V-Fluos cell death high content imaging after met siRNA transfection. Format: cell-based. As to conditions: increased concentrations of caspase inhibitor for 1 additional day after transfection. As to the method: Exponentially growing HT29 cells were plated in black 96-well plates at 5,000 cells/well overnight in medium with 10% FBS. The next day, cells were transiently transfected for 2 days using DharmaFECT 4 reagent with a pool of four met-specific 21-nucleotide RNA oligonucleotides forming a 19-bp duplex core with 2-nucleotide 3′ overhang in combination (Dharmacon, Inc., Lafayette, Colo.). Transfection of gapdh siRNA (Dharmacon, Inc.) and of a non-targeting siRNA under the same conditions was done in parallel as controls (Dharmacon, Inc.). Cells were then incubated in the absence or the presence of increasing concentrations of ZvAD-FMK, an irreversible caspase inhibitor for 1 additional day. Cells were incubated for at least 10 minutes in a labeling solution (10 mM HEPES, 140 mM NaCl and 6 mM CaCl2) containing […] Hoescht 33342 (blue channel; Molecular Probes/Invitrogen Corp., Natick, Mass.), 500 times diluted Annexin V-Fluos (green channel; Roche Applied Science, Indianapolis, Ind.) and 1 μg/ml propidium iodide (red channel; Roche Applied Science). High content image acquisition and analysis were carried out using a Beckman Coulter IC100 Cytometer. The program was set to take four images per well. […] Images were processed and numbers of positive cells for each channel and each condition were determined using Cytoshop 2.1 software (Beckman Coulter, Inc.). […]

The mark [4] stands for this setting: Homo sapiens, HT-29, 24 hours treatment.
Setting [5] is: 24 hours treatment, read-out: HT-29, IC50.

Where a name gives a salt, the structure may show the parent alone. Read-outs that look alike come from different tables or passages of the source. Where a SMILES comes first, the peptide text is derived from it. The star is where a group is joined. Cbz = O=C(OCc1ccccc1)*; CH2F = FC* Bounds are passed on as bounds.

T1 sequence (P08581 1038-1346): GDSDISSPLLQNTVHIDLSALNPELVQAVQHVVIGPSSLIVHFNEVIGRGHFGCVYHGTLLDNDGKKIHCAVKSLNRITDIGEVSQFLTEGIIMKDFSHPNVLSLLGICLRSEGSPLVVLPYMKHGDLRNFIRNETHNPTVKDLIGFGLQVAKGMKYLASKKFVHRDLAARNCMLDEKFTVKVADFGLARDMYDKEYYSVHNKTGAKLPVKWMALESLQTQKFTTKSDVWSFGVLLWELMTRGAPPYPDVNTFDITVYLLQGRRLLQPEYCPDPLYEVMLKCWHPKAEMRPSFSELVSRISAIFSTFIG

By melting point is commonly meant the temperature, or range, at which the solid turns liquid. Consider `O=C1NCC(c2cn3c4c(cccc24)CCC3)C1c1c[nH]c2ccccc12` (mixture of isomers) [Example 1, 4-(5,6-dihydro-4H-pyrrolo[3,2,1-ij]quinolin-1-yl)-3-(1H-indol-3-yl)-pyrrolidin-2-one], for which the melting point lay within 260 to 262 °C. Besides, the IC50 in the data set on HT29 cells [1] (setting [4]) was no more than 1 µM. Besides, the IC50 in data set [2] is no less than 10 µM.

In turn, `CC(C)(C)CC(=O)N1C[C@@H](c2c[nH]c3ccccc23)[C@H](c2cn3c4c(cccc24)CCC3)C1` [Example 12, 1-[(3R,4R)-3-(5,6-dihydro-4H-pyrrolo[3,2,1-ij]quinolin-1-yl)-4-(1H-indol-3-yl)-pyrrolidin-1-yl]-3,3-dimethyl-butan-1-one] showed a melting point of 202 to 204 °C. In the data set with HT29 cells [1] (setting [4]), this compound gave an IC50 of no less than 10 µM. The IC50 in data set [2] was no less than 10 µM.

`O=C1NC[C@@H](c2cccc(C(F)(F)F)c2)[C@@H]1c1cn2c3c(cccc13)CCC2` (racemic) [Example 5, (±)-trans-3-(5,6-Dihydro-4H-pyrrolo[3,2,1-ij]quinolin-1-yl)-4-(3-trifluoromethyl-phenyl)-pyrrolidin-2-one] showed a melting point of 82 to 85 °C. This compound also registered an IC50 with HT29 cells [1] (setting [4]) of no less than 10 µM.

Turning to “(3R,4R)-4-(5,6-dihydro-4H-pyrrolo[3,2,1-ij]quinolin-1-yl)-3-(1H-indol-3-yl)-5-thioxo-pyrrolidin-2-one and (3R,4R)-3-(5,6-dihydro-4H-pyrrolo[3,2,1-ij]quinolin-1-yl)-4-(1H-indol-3-yl)-5-thioxo-pyrrolidin-2-one (1/1 mixture) [Example 2]”, the IC50 (in the data set with HT29 cells [1] (setting [5]); in data set [2]) was no more than 1 µM in each case.

In turn, `O=C(C1CCC1)N1C[C@@H](c2c[nH]c3ccccc23)[C@H](c2cn3c4c(cccc24)CCC3)C1` [Example 11, cyclobutyl-[(3R,4R)-3-(5,6-dihydro-4H-pyrrolo[3,2,1-ij]quinolin-1-yl)-4-(1H-indol-3-yl)-pyrrolidin-1-yl]-methanone] had a melting point of 253 to 255 °C. The compound also came in with an IC50 in the data set with HT29 cells [1] (setting [4]) of no less than 10 µM. Besides, the IC50 in data set [2] is no less than 10 µM.

Regarding `O=S(=O)(c1ccccc1)N1C[C@@H](c2c[nH]c3ccccc23)[C@H](c2cn3c4c(cccc24)CCC3)C1` [Example 9, 1-[(3R,4R)-1-benzenesulfonyl-4-(1H-indol-3-yl)-pyrrolidin-3-yl]-5,6-dihydro-4H-pyrrolo[3,2,1-ij]quinoline], the melting point was in the range of 115 to 125 °C. This compound gave an IC50 with HT29 cells [1] (setting [4]) of no less than 10 µM. In data set [2], the IC50 is no less than 10 µM.

Take “(3R,4R)-4-(5,6-dihydro-4H-pyrrolo[3,2,1-ij]quinolin-1-yl)-3-(1H-indol-3-yl)-pyrrolidin-2-one and (3R,4R)-3-(5,6-dihydro-4H-pyrrolo[3,2,1-ij]quinolin-1-yl)-4-(1H-indol-3-yl)-pyrrolidin-2-one (1/1 mixture) [Example 3]”: the IC50 with HT29 cells [1] (setting [5]) was no more than 1 µM; in data set [2], no less than 10 µM.

Turning to `c1ccc2c([C@@H]3CNC[C@H]3c3cn4c5c(cccc35)CCC4)c[nH]c2c1` [Example 7, 1-[(3R,4R)-4-(1H-indol-3-yl)-pyrrolidin-3-yl]-5,6-dihydro-4H-pyrrolo[3,2,1-ij]quinoline], the figures for the IC50 (in the data set with HT29 cells [1] (setting [4]); in data set [2]) were no more than 1 µM and no less than 10 µM, respectively.

`O=C1NC[C@@H](c2c[nH]c3ccccc23)[C@@H]1c1cn2c3c(cccc13)CCC2` (racemic) [Example 4, (±)-trans-3-(5,6-dihydro-4H-pyrrolo[3,2,1-ij]quinolin-1-yl)-4-(1H-indol-3-yl)-pyrrolidin-2-one] registered a melting point of 241 to 243 °C. Also, the IC50 in the data set with HT29 cells [1] (setting [4]) was no more than 1 µM. Besides, the IC50 in data set [2] was 1 to 10 µM.

As to `c1ccc2c([C@@H]3CNC[C@H]3c3cn4c5c(cccc35)CCC4)c[nH]c2c1` (as salt: HCl) [Example 7, 1-[(3R,4R)-4-(1H-indol-3-yl)-pyrrolidin-3-yl]-5,6-dihydro-4H-pyrrolo[3,2,1-ij]quinoline], the melting point lay in the range of 239 to 240 °C.

In the case of `COC(=O)C[C@H](NC(=O)[C@H](C)NC(=O)[C@@H](NC(=O)OCc1ccccc1)C(C)C)C(=O)CF` [ZvAD-FMK] (Cbz-Val-Ala-Asp(OMe)-CH2F), the “levels of cell death in met siRNA transfected cells” value in the data set on HT29 cells [3] is given as “decreased the levels of cell death”.

Consider `COc1cccc([C@@H]2CNC(=O)[C@H]2c2cn3c4c(cccc24)CCC3)c1` (racemic) [Example 6, (±)-trans-3-(5,6-Dihydro-4H-pyrrolo[3,2,1-ij]quinolin-1-yl)-4-(3-methoxy-phenyl)-pyrrolidin-2-one], for which the melting point lay in the range of 191 to 194 °C. Also, in the data set with HT29 cells [1] (setting [4]), the IC50 is no less than 10 µM.

Regarding `CCNC(=O)N1C[C@@H](c2c[nH]c3ccccc23)[C@H](c2cn3c4c(cccc24)CCC3)C1` [Example 8, (3R,4R)-3-(5,6-dihydro-4H-pyrrolo[3,2,1-ij]quinolin-1-yl)-4-(1H-indol-3-yl)-pyrrolidine-1-carboxylic acid ethylamide], the melting point lay within 278 to 279 °C. The compound also returned an IC50 with HT29 cells [1] (setting [4]) of no less than 10 µM. The IC50 in data set [2] was no less than 10 µM.

On to `CC(C)S(=O)(=O)N1C[C@@H](c2c[nH]c3ccccc23)[C@H](c2cn3c4c(cccc24)CCC3)C1` [Example 10, 1-[(3R,4R)-4-(1H-indol-3-yl)-1-(propane-2-sulfonyl)-pyrrolidin-3-yl]-5,6-dihydro-4H-pyrrolo[3,2,1-ij]quinoline], for which the melting point lay in the range of 100 to 115 °C. Also, the IC50 with HT29 cells [1] (setting [4]) is no less than 10 µM. Further, in data set [2], the IC50 is no less than 10 µM.
